Test results from US20260001893A1, “SMALL MOLECULE MODULATORS OF STAT6” (Gilead Sciences, Inc., priority 2024, published 2026).

biological target: T1, Human STAT6 (truncated, aa122-658, with N-terminal His-tag) (Homo sapiens, UniProt P42226); experiment: Surface plasmon resonance (SPR) assay, binding to human STAT6; conditions: Biacore 8K, 25° C, immobilized human STAT6 on CM5 chip, multi-cycle kinetics; geometric mean
T1 construct: Human STAT6 (truncated, aa122-658, with N-terminal His-tag, expressed in insect cells); His-tag (N); made in house; host or cells: insect cells
T1 sequence (P42226 122-658): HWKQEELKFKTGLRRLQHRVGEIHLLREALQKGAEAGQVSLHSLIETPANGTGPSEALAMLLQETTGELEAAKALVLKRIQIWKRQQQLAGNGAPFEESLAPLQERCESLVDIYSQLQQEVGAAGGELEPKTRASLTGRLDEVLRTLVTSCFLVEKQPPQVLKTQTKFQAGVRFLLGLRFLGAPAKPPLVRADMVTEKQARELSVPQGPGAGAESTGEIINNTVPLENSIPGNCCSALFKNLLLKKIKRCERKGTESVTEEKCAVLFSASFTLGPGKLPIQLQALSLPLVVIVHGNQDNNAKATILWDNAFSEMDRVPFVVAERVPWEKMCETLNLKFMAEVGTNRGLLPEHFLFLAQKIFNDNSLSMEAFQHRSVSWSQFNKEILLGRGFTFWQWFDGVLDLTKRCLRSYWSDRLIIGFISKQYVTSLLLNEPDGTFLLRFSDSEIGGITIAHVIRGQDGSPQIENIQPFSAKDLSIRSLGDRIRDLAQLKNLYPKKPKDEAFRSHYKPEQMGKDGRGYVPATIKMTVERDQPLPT
Protocol: Surface Plasmon Resonance Assay
Biacore instruments from the 8K-series (Cytiva) were used, and measurements were performed at 25° C. Human STAT6 (truncated, aa122-658, with N-terminal His-tag, expressed in insect cells) was immobilized in the active flow cells on a CM5 chip using amine-coupling (default settings) at 10 μg/ml in 10 mM acetate buffer pH 5.5, at a contact time of 120-420 sec. and a flow rate of 10 μl/min. Reference flow cells were deactivated using blank immobilization. PBS-P+(Cytiva) supplemented with 2% DMSO was used as running buffer, and solvent correction was applied. Compounds were tested by multi-cycle kinetics injections using a contact time of 60 sec., dissociation time of up to 300 sec., and a flow rate of 30 μl/min.
Solvent-corrected, reference-subtracted and blank-corrected data was processed and binding isotherms were fitted according to a single report point from each sensorgram (Standard: Late binding (5 sec. before injection end); alternative: Earlier report point according to binding profile). Data fitting was done both with unfixed Rmax and with Rmax fixed to the theoretical value* assuming 1:1 binding to allow processing of data from both weak and strong binders as well as to evaluate binding stoichiometry.
Positive controls were run at the beginning, during, and at the end of the screen to evaluate surface activity.
*Equation for calculation of the theoretical Rmax(Theoretical Rmax=(MW Analyte/MW Ligand)×immobilization level).

Row | SMILES | Kd [nM]
1 | [2H]C([2H])([2H])N(C(=O)c1ccc(C2CCN(Cc3cc4c(-n5ccc(NC)cc5=O)ccnc4n3C)CC2)c(C)c1)C([2H])([2H])[2H] [Example 1d26, 3-Methyl-4-[1-[[1-methyl-4-[4-(methylamino)-2-oxo-1-pyridyl]pyrrolo[2,3-b]pyridin-2-yl]methyl]-4-piperidyl]-N,N-bis(trideuteriomethyl)benzamide] | 69.7
2 | CCCN(CCC)C(=O)c1ccc(C2CCN(Cc3cc4c(-n5ccc(NC)cc5=O)ccnc4n3C)CC2)cc1 [Example 1d11, N,N-Dipropyl-4-[1-[[1-methyl-4-[4-(methylamino)-2-oxo-1-pyridyl]pyrrolo[2,3-b]pyridin-2-yl]methyl]-4-piperidyl]benzamide] | 38.4
3 | CN(C)C(=O)c1ccc(C2CCN(Cc3cc4c(-n5ccc(N)c(C6CC6)c5=O)ccnc4n3C)CC2)cc1 [Example 1d28, 4-[1-[[4-(4-Amino-3-cyclo-propyl-2-oxo-1-pyridyl)-1-methyl-pyrrolo[2,3-b]pyridin-2-yl]methyl]-4-piperidyl]-N,N-dimethyl-benzamide] | 76.4
4 | CN(C)C(=O)c1ccc(C2CCN(Cc3cc4c(-n5c(F)c(Cl)c(N)c(Cl)c5=O)ccnc4n3C)CC2)cc1 [Example 1d17, 4-[1-[[4-(4-Amino-3,5-dichloro-2-fluoro-6-oxo-1-pyridyl)-1-methyl-pyrrolo[2,3-b]pyridin-2-yl]methyl]-4-piperidyl]-N,N-methyl-benzamide] | 6620
5 | CNc1ccn(-c2ccnc3c2cc(C(C)N2CCC(c4ccc(C(=O)N(C)C)cc4)CC2)n3C)c(=O)c1 (stereo not drawn) [Example 1m71, N,N-dimethyl-4-(1-(1-(1-methyl-4-(4-(methylamino)-2-oxopyridin-1 (2H)-yl)-1H-pyrrolo[2,3-b]pyridin-2-yl)ethyl)piperidin-4-yl)benzamide] | 16.4
6 | CNc1ccn(-c2ccnc3c2cc(CN2CCC(c4ncc(C(=O)N(C)C)cc4C)CC2)n3C)c(=O)c1 [Example 1m15, N,N,5-Trimethyl-6-(1-((1-methyl-4-(4-(methylamino)-2-oxopyridin-1 (2H)-yl)-1H-pyrrolo[2,3-b]pyridin-2-yl)methyl)piperidin-4-yl)nicotinamide] | 572
7 | CN(C)C(=O)c1ccc(C2CCN(Cc3cc4c(-n5ccc(NC(=O)OC(C)(C)C)cc5=O)ccnc4n3C)CC2)cc1 [Example 1d2, tert-Butyl N-[1-[2-[[4-[4-(dimethylcarbamoyl)phenyl]-1-piperidyl]methyl]-1-methyl-pyrrolo[2,3-b]pyridin-4-yl]-2-oxo-4-pyridyl]carbamate] | 175
8 | CN(C)C(=O)c1ccc(C2CCN(Cc3cc4c(-n5ccc(NCc6ccc(F)c(F)c6)cc5=O)ccnc4n3C)CC2)cc1 [Example 1d14, 4-[1-[[4-[4-[(3,4-Difluorophenyl)methylamino]-2-oxo-1-pyridyl]-1-methyl-pyrrolo[2,3-b]pyridin-2-yl]methyl]-4-piperidyl]-N,N-dimethyl-benzamide] | 124
9 | CNc1ccn(-c2ccnc3c2cc(CN2CC=C(c4ccc(C(=O)N(C)C)cn4)CC2)n3C)c(=O)c1 [Example 1m13, N,N-Dimethyl-1′-((1-methyl-4-(4-(methylamino)-2-oxopyridin-1 (2H)-yl)-1H-pyrrolo[2,3-b]pyridin-2-yl)methyl)-1′, 2′, 3′, 6′-tetrahydro-[2,4′-bipyridine]-5-carboxamide] | 167
10 | CN(C)C(=O)c1ccc(C2CCN(Cc3cc4c(-n5ccc(NCC6CC6)cc5=O)ccnc4n3C)CC2)cc1 [Example 1d7, 4-[1-[[4-[4-(cyclo-Propylmethylamino)-2-oxo-1-pyridyl]-1-methyl-pyrrolo[2,3-b]pyridin-2-yl]methyl]-4-piperidyl]-N,N-dimethyl-benzamide] | 99.8
11 | CN(C)C(=O)c1ccc(C2CCN(Cc3cc4c(-n5ccc6c(c5=O)CCCN6)ccnc4n3C)CC2)cc1 [Example 1d35, N,N-Dimethyl-4-[1-[[1-methyl-4-(5-oxo-1,2,3,4-tetrahydro-1,6-naphthyridin-6-yl)pyrrolo[2,3-b]pyridin-2-yl]methyl]-4-piperidyl]benzamide] | 25.1
12 | COC(=O)Nc1ccn(-c2ccnc3c2cc(CN2CCC(c4ccc(C(=O)N(C)C)cc4)CC2)n3C)c(=O)c1 [Example 1d6, Methyl N-[1-[2-[[4-[4-(dimethylcarbamoyl)phenyl]-1-piperidyl]methyl]-1-methyl-pyrrolo[2,3-b]pyridin-4-yl]-2-oxo-4-pyridyl]carbamate] | 152
13 | CNc1ccn(-c2ccnc3c2cc(CN2CCC(c4ccc(C(=O)N(C)C)cn4)CC2)n3C)c(=O)c1 [Example 1m11, N,N-Dimethyl-6-(1-((1-methyl-4-(4-(methylamino)-2-oxopyridin-1 (2H)-yl)-1H-pyrrolo[2,3-b]pyridin-2-yl)methyl)piperidin-4-yl)nicotinamide] | 113
14 | CNc1ccn(-c2ccnc3c2cc(CN2CCC(c4ccc(C(=O)N(C)C)cc4C(F)(F)F)CC2)n3C)c(=O)c1 [Example 1d38, N,N-Dimethyl-4-[1-[[1-methyl-4-[4-(methylamino)-2-oxo-1-pyridyl]pyrrolo[2,3-b]pyridin-2-yl]methyl]-4-piperidyl]-3-(trifluoromethyl)benzamide] | 570
15 | CN(C)C(=O)c1ccc(C2CCN(Cc3cc4c(-n5ccc(NCc6ccccc6)cc5=O)ccnc4n3C)CC2)cc1 [Example 1d12, 4-[1-[[4-[4-(Benzylamino)-2-oxo-1-pyridyl]-1-methyl-pyrrolo[2,3-b]pyridin-2-yl]methyl]-4-piperidyl]-N,N-dimethyl-benzamide] | 31
16 | CNc1ccn(-c2ccnc3c2cc(CN2CC[C@H](c4ccc(C(=O)N(C)C)cc4)[C@H](F)C2)n3C)c(=O)c1 (single isomer, unassigned) [Example 1f6] | 67.5
17 | CCOC(=O)Nc1ccn(-c2ccnc3c2cc(CN2CCC(c4ccc(C(=O)N(C)C)cc4)CC2)n3C)c(=O)c1 [Example 1d5, Ethyl N-[1-[2-[[4-[4-(dimethylcarbamoyl)phenyl]-1-piperidyl]methyl]-1-methyl-pyrrolo[2,3-b]pyridin-4-yl]-2-oxo-4-pyridyl]carbamate] | 178
18 | CNc1ccn(-c2ccnc3c2cc(CN2CCC(F)(c4ccc(C(=O)N(C)C)cc4)CC2)n3C)c(=O)c1 [Example 1f5, 4-[4-Fluoro-1-[[1-methyl-4-[4-(methylamino)-2-oxo-1-pyridyl]pyrrolo-[2,3-b]pyridin-2-yl]methyl]-4-piperidyl]-N,N-dimethyl-benzamide] | 156
19 | Cc1cn(-c2ccnc3c2cc(CN2CCC(c4ccc(C(=O)N(C)C)cc4)CC2)n3C)c(=O)nc1N [Example 1ac3, 4-(1-((4-(4-Amino-5-methyl-2-oxopyrimidin-1 (2H)-yl)-1-methyl-1H-pyrrolo[2,3-b]pyridin-2-yl)methyl)piperidin-4-yl)-N,N-dimethylbenzamide] | 91.8
20 | CNc1cc(=O)n(-c2ccnc3c2cc(CN2CCC(c4ccc(C(=O)N(C)C)cc4)CC2)n3C)cn1 [Example 1ac1, N,N-Dimethyl-4-(1-((1-methyl-4-(4-(methylamino)-6-oxopyrimidin-1 (6H)-yl)-1H-pyrrolo[2,3-b]pyridin-2-yl)methyl)piperidin-4-yl)benzamide] | 4090
21 | CN(C)C(=O)c1ccc(C2CC[N+]([O-])(Cc3cc4c(-n5ccc6c(c5=O)CCN6)ccnc4n3C)CC2)cc1 (stereo not drawn) [Example 1d33, N,N-Dimethyl-4-[1-[[1-methyl-4-(4-oxo-2,3-dihydro-1H-pyrrolo[3,2-c]pyridin-5-yl)pyrrolo[2,3-b]pyridin-2-yl]methyl]-1-oxido-piperidin-1-ium-4-yl]benzamide] | 75.1
22 | CN(C)C(=O)c1ccc(C2CCN(Cc3cc4c(-n5ccc(NC(C)(C)C)cc5=O)ccnc4n3C)CC2)cc1 [Example 1d9, 4-[1-[[4-[4-(tert-Butylamino)-2-oxo-1-pyridyl]-1-methyl-pyrrolo[2,3-b]pyridin-2-yl]methyl]-4-piperidyl]-N,N-dimethyl-benzamide] | 4970
23 | CNc1ccn(-c2ccnc3c2cc(CN2CCN(c4ccc(C(=O)N(C)C)cc4)C[C@H]2C)n3C)c(=O)c1 [Example 1m2, (R)—N,N-Dimethyl-4-(3-methyl-4-((1-methyl-4-(4-(methylamino)-2-oxopyridin-1 (2H)-yl)-1H-pyrrolo[2,3-b]pyridin-2-yl)methyl)piperazin-1-yl)benzamide] | 188
24 | CNc1ccn(-c2ccnc3c2cc(CN2CCC(c4ccc(C(=O)N(C)C)cc4)C(F)(F)C2)n3C)c(=O)c1 (single isomer, unassigned) [Example 1f2] | 81.3
